According to patent US6503935B1, “Imidazoles and related compounds as α1A agonists” (Abbott Laboratories, priority 1998, dated 2003):
Structures can show the parent of a compound that is named as a salt. Where two headings read alike, the source gives them in different places.

Experiments:
[1] = molecular target: T1, α1b (hamster receptor expressed in mouse fibroblasts) (Mesocricetus auratus, UniProt P18841); test: Radioligand binding with [3H]-prazosin, α1b
T1 construct: expressed in transfected cells; host or cells: mouse fibroblasts
T1 sequence (P18841 1-515): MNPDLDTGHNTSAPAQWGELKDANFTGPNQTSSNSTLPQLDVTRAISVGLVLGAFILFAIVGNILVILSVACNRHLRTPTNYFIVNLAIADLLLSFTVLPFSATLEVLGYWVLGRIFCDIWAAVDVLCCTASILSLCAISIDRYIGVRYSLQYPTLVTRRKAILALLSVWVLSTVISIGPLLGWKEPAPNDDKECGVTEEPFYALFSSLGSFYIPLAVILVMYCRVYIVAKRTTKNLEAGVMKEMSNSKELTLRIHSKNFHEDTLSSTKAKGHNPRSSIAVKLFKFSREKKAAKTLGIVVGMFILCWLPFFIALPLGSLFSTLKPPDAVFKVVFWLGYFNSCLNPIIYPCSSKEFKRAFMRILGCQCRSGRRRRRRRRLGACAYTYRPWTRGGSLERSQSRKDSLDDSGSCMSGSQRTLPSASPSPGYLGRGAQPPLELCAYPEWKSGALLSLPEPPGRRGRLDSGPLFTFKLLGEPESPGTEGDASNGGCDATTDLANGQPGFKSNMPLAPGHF
Experimental: (§1) For purposes of discussing α1 adrenoceptor subtypes, the IUPHAR convention of using lower case letters to define molecular clones and upper case letters to indicate pharmacologically defined adrenoceptors has been followed. Compounds of formula I were evaluated in radioligand binding assays specific for α1A (rat submaxillary gland), α1b (hamster receptor expressed in mouse fibroblasts) and α1d (rat receptor expressed in mouse fibroblasts) using [^3H]-prazosin as the radioligand as described in Knepper, et al. J. Pharm.

[2] = molecular target: T2, α1A (rabbit urethra) (Oryctolagus cuniculus, UniProt O02824); test: Agonist contraction of smooth muscle tissue, rabbit urethra; assay type: cell-based; details: read-out: Agonist Tissue Response (pD2) α1A (rab ureth) (converted)
T2 construct: tested for α1A functional activity using rabbit urethra; from tissue; host or cells: rabbit urethra
T2 sequence (O02824 1-466): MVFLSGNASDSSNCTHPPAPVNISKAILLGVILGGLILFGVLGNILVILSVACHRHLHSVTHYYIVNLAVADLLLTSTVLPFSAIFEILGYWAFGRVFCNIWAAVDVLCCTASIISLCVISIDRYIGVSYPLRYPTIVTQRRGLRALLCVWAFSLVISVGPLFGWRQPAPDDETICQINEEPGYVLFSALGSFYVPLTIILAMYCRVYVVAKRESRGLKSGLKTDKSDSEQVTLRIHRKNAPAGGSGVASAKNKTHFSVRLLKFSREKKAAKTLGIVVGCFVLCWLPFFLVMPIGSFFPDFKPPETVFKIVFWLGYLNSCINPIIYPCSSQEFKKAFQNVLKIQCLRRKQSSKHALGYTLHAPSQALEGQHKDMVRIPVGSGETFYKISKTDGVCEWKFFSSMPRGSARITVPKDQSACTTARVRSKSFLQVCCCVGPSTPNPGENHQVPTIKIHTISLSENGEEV
Experimental: Most of the compounds were tested for α1A functional activity using rabbit urethra as follows. Female New Zealand white rabbits (2.0-3.5 Kg) were sedated with CO2 and decapitated. […] Subsequent experimental conditions were as described above for the other tissues. Agonist concentration response curves were cumulative except for the vas deferens assay in which the transient response made such measurements impractical.

[3] = molecular target: T3, α1A (rat submaxillary gland) (Rattus norvegicus, UniProt P43140); test: Radioligand binding with [3H]-prazosin, α1A
T3 construct: α1A (rat submaxillary gland); from tissue; host or cells: rat submaxillary gland
T3 sequence (P43140 1-466): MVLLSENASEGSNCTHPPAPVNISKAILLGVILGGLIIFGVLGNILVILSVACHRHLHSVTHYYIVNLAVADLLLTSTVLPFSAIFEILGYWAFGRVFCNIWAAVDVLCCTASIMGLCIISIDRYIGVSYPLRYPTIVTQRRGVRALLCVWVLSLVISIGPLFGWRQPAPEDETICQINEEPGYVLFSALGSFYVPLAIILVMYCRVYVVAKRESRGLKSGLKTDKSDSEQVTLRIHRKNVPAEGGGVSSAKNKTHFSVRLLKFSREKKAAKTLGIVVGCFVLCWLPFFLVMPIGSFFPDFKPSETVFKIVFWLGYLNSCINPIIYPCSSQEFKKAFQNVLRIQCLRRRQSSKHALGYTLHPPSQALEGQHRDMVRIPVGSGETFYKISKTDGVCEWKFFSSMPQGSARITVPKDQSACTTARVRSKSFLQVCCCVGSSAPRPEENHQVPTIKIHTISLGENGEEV
Experimental: as §1

[4] = molecular target: T4, α1d (rat receptor expressed in mouse fibroblasts) (Rattus norvegicus, UniProt P23944); test: Radioligand binding with [3H]-prazosin, α1d
T4 construct: expressed in transfected cells; host or cells: mouse fibroblasts
T4 sequence (P23944 1-561): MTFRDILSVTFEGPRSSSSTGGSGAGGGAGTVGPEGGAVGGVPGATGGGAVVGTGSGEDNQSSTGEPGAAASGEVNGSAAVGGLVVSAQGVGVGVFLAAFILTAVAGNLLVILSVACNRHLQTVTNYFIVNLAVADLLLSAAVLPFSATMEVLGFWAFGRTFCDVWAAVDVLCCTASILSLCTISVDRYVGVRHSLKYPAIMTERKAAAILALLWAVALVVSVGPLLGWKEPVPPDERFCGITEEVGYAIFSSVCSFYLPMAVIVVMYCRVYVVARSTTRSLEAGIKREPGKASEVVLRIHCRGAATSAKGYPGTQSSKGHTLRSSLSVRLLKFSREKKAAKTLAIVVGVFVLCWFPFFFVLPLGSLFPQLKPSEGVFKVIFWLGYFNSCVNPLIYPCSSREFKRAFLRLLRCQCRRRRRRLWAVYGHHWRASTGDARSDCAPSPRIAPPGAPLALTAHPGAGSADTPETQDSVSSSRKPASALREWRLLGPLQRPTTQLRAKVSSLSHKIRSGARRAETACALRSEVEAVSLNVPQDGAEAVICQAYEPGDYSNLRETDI
Experimental: as §1

[5] = molecular target: T5, α1D (rat aorta) (Rattus norvegicus, UniProt P23944); test: Agonist contraction of smooth muscle tissue, rat aorta; assay type: cell-based; details: read-out: Agonist Tissue Response (pD2) α1D (rat aorta) (converted)
T5 construct: α1B (rat spleen) and α1D (rat aorta) receptors; from tissue; host or cells: rat aorta strips, endothelium removed
T5 sequence (P23944 1-561): T4 sequence (P23944 1-561)

[6] = molecular target: T6, α1B (rat spleen) (Rattus norvegicus, UniProt P15823); test: Agonist contraction of smooth muscle tissue, rat spleen; assay type: cell-based; details: read-out: Agonist Tissue Response (pD2) α1B (rat spleen) (converted)
T6 construct: α1B (rat spleen) and α1D (rat aorta) receptors; from tissue; host or cells: rat spleen
T6 sequence (P15823 1-515): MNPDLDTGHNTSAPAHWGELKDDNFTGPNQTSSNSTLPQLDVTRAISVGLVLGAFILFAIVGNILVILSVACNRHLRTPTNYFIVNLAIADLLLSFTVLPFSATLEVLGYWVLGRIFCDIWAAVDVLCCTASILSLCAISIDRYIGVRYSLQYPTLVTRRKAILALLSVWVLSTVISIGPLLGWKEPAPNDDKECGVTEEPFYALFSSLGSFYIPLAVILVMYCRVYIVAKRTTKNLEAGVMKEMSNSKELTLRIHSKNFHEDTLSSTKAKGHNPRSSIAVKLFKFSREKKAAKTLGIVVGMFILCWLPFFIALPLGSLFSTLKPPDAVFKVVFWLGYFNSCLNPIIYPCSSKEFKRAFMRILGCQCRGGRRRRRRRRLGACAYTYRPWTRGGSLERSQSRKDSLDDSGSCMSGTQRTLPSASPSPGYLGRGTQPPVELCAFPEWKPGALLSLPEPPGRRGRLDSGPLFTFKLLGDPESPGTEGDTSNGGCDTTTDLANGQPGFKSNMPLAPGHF

[7] = system: Anesthetized Dogs; test: Mean arterial pressure (MAP) in anesthetized dogs; assay type: in vivo, dog; details: iv dose causing a maximum increase in MAP of 20 mm Hg, anesthetized female dogs
Excerpt: (§2) In vivo Functional Assays-Assessment of Intrurethral Pressure (IUP) and Mean Arterial Pressure (MAP) in Anesthetized Dogs
(§3) Female dogs (Marshall Farms, North Rose, N.Y.) greater that 2 years of age and weighing between 12 and 15 kg were used in these studies. At least 2 weeks prior to any agonist dosing, dogs were instrumented for the chronic measurement of arterial blood pressure by implanting a telemetry transducer/transmitter (TA11PA-C40, Data Sciences International, St. Paul, Minn.) into a carotid artery.
(§4) On the test day, dogs fasted since the previous afternoon were pre-anesthetized with thiopental sodium 15 mg/kg i.v. (Pentothal™, Abbott) and intubated. Anesthesia was maintained by allowing the dog to spontaneously breathe a mixture of isoflurane (2.5 to 3 volume %) and oxygen delivered by a Narkomed Standard anesthesia system (North American Drager, Telford, Pa.). An Abbocath-T™ i.v. catheter (18-G, Abbott) was inserted into the cephalic vein for the administration of agonists. A telemetry receiver (RA1310, DataSciences) was placed under the head of each dog and was interfaced to a computerized data acquisition system (Modular Instruments Inc.(MI2), Malvern, Pa.) which allowed for the continuous calibrated recording of arterial blood pressure which was electronically filtered to determine its mean value (MAP).
(§5) Dogs with chronic telemetry implants anesthetized as described above were placed in dorsal recumbency and a balloon catheter was inserted into the urethral orifice and advanced approximately 15 cm until the tip was well inside the bladder. The balloon was then inflated with 1 ml of room air and the catheter slowly withdrawn until resistance (corresponding to the bladder neck) was evident. The balloon was then deflated and the catheter withdrawn an additional 2 cm. The balloon was then reinflated and its catheter port connected to a Gould Statham P23Dd pressure transducer interfaced to a computerized data acquisition system (Modular Instruments, Inc., Malvern, Pa.) for the measurement of intraurethral pressure. Increasing iv doses of test agonists were administered and the maximum effect of each dose on IUP was recorded. The effect of each dose was allowed to return to baseline before the next dose was given.
(§6) From the resulting dose response curve, an ED5 value, for the dose causing a maximum increase in IUP of 5 mm Hg, could be estimated. An ED20 value for the dose causing a maximum increase in MAP of 20 mm Hg could also be estimated. A selectivity ratio of MAP ED20 vs. IUP ED5 was calculated.

[8] = system: Anesthetized Dogs; test: Intraurethral pressure (IUP) in anesthetized dogs; assay type: in vivo, dog; details: Canis lupus familiaris; iv dose causing a maximum increase in IUP of 5 mm Hg, anesthetized female dogs; read-out: Mean IUP ED5
[9] = system: Anesthetized Dogs; test: Intraurethral pressure (IUP) in anesthetized dogs; assay type: in vivo, dog; details: iv, anesthetized female dogs
Excerpt: as §2, §3, §4, §5, §6

[10] = rat submaxillary gland, [3H]-prazosin
[11] = Radioligand Binding Ki α1d (Rat), rat receptor expressed in mouse fibroblasts, [3H]-prazosin

SMILES	Mean MAP ED20 [7]	ED (5 mmHg IUP increase) [8]	EC50 ([2]; rabbit urethra)	Ki [3, 10]	EC50 ([5]; rat aorta, endothelium removed)	also measured
Cn1cnc(C2CCCc3c2ccc(O)c3NS(C)(=O)=O)c1 (stereo not drawn) [Example 5, N-[2-hydroxy-5-(1-methyl-1H-imidazol-4-yl)-5,6,7,8-tetrahydro-1-naphthalenyl]methanesulfonamide, hydrochloride]	–	–	–	–	–	Ki ([1]; read-out: Radioligand Binding Ki α1b (Hamster)): 6.14 µM; EC50 [2]: 0.513 µM; Ki [3]: 0.136 µM; Ki ([4]; read-out: Radioligand Binding Ki α1d (Rat)): 1.55 µM; EC50 [5]: 3.31 µM; EC50 [6]: 9.33 µM
CS(=O)(=O)Nc1cccc2c1CCC[C@H]2c1c[nH]cn1 [Example 9, (+)-N-[(5R)-5-(1H-imidazol-4-yl)-5,6,7,8-tetrahydro-1-naphthalenyl]methanesulfonamide]	48.7 nmol/kg	0.0204 µmol/kg	–	–	–	–
CS(=O)(=O)Nc1cccc2c1CCC[C@@H]2c1c[nH]cn1 [Example 10, (−)-N-[(5S)-5-(1H-imidazol-4-yl)-5,6,7,8-tetrahydro-1-naphthalenyl]methanesulfonamide]	>300 nmol/kg	> 0.3 µmol/kg	–	–	–	–
CS(=O)(=O)Nc1cc(Cc2c[nH]cn2)ccc1O [Example 11, N-[2-hydroxy-5-(1H-imidazol-4-ylmethyl)phenyl]methanesulfonamide, hydrochloride]	–	–	0.148 µM	0.0822 µM	0.692 µM	Ki [1]: 1.4 µM; Ki [4, 11]: 0.311 µM; EC50 ([6]; rat spleen): 1.2 µM
CS(=O)(=O)Nc1cccc2c1OCCC2c1c[nH]cn1.O=C(O)/C=C\C(=O)O (stereo not drawn) [Example 19, N-[4-(1H-imidazol-4-yl)-3,4-dihydro-2H-chromen-8-yl]methanesulfonamide, maleate]	–	0.0671 µmol/kg	–	–	–	–
O=C(O)/C=C\C(=O)O.O=S(=O)(CC(F)(F)F)Nc1cccc2c1CCCC2c1c[nH]cn1 (stereo not drawn) [Example 20, N-[5,6,7,8-tetrahydro-5-(1H-imidazol-4-yl)-1-naphthalenyl]-2,2,2-trifluoroethanesulfonamide, maleate]	885 nmol/kg	–	2.82 µM	0.253 µM	> 1000 µM	ED (5 mmHg IUP increase) ([9]; Canis lupus familiaris, iv dose causing a maximum increase in IUP of 5 mm Hg, read-out: Mean IUP ED5): 0.209 µmol/kg; Mean Selectivity Ratio MAP ED20/IUP ED5 [9]: 6.1; EC50 ([6]; rat spleen): > 1000 µM
CCS(=O)(=O)Nc1cccc(C(=C2CCCCC2)c2c[nH]cn2)c1 [Example 56]	–	–	16.2 µM	0.229 µM	> 1000 µM	Ki [1]: 0.0151 µM; Ki [4, 11]: 0.00198 µM
O=S(=O)(Nc1cccc2c1CCCC2c1cnc[nH]1)c1cccc2cccnc12 (stereo not drawn) [Example 73, N-[5-(1H-imidazol-5-yl)-5,6,7,8-tetrahydro-1-naphthalenyl]-8-quinolinesulfonamide]	–	–	17.8 µM	1.02 µM	–	Ki ([1]; hamster receptor expressed in mouse fibroblasts, [3H]-prazosin, read-out: Radioligand Binding Ki α1b (Hamster)): 1.19 µM; Ki ([4]; rat receptor expressed in mouse fibroblasts, [3H]-prazosin, read-out: Radioligand Binding Ki α1d (Rat)): 2.23 µM
